Source: the supplement of paper PMC13380429

Experiments:
[1] = system: A549-ACE2 infected with SARS-CoV-2; test: cell count relative to DMSO; higher = less toxic; settings: 24 h
[2] = system: Caco-2; test: cell viability relative to DMSO; higher = less toxic; settings: 72 h
[3] = system: Calu-3; test: as above; settings: 72 h
[4] = system: HepG2; test: as above; settings: 72 h
[5] = system: Vero E6; test: as above; settings: 72 h
[6] = system: A549-ACE2 infected with SARS-CoV-2; test: SARS-CoV-2 infection rate relative to DMSO; higher = more infection; settings: 24 h
[7] = system: A549-ACE2; test: drug-induced phospholipidosis relative to tamoxifen; higher = more phospholipidosis
[8] = system: A549-ACE2 infected with SARS-CoV-2; test: morphology score (similarity to uninfected cells); higher = more like uninfected cells; settings: 24 h
[9] = system: HepG2; test: relative viability EC50 (midpoint between 100% and the lowest measured viability); higher = less toxic; settings: 72 h
[10] = system: Vero E6; test: as above; settings: 72 h
[11] = system: Caco-2; test: drug sensitivity score (DSS) for viability; higher = more toxic; extreme values may be limits of the assay; settings: 72 h
[12] = system: Calu-3; test: as above; settings: 72 h
[13] = system: HepG2; test: as above; settings: 72 h
[14] = system: Vero E6; test: as above; settings: 72 h
[15] = system: U2OS; test: cell viability relative to DMSO; higher = less toxic; settings: 72 h
[16] = system: U2OS; test: relative viability EC50 (midpoint between 100% and the lowest measured viability); higher = less toxic; settings: 72 h
[17] = system: U2OS; test: drug sensitivity score (DSS) for viability; higher = more toxic; extreme values may be limits of the assay; settings: 72 h
[18] = system: Calu-3; test: relative viability EC50 (midpoint between 100% and the lowest measured viability); higher = less toxic; settings: 72 h
[19] = system: Caco-2; test: as above; settings: 72 h

O=c1cc(N2CCOCC2)oc2c(-c3cccc4c3sc3ccccc34)cccc12 [NU-7441]
Settings	SARS-CoV-2 infection rate, [6] [%]	cell count, [1] [%]	cell viability, [2] [%]	cell viability, [3] [%]	cell viability, [4] [%]	cell viability, [5] [%]	morphology score, [8]
1 nM	–	–	109	101	108	104	–
10 nM	–	–	89.2	110	108	102	–
0.1 µM	101	96	–	–	–	–	-0.14
100 nM	–	–	100	98.7	116	102	–
0.3 µM	101	94	–	–	–	–	-0.23
1 µM	74	105	–	–	–	–	0.22
1000 nM	–	–	71.2	111	88.4	85.4	–
3 µM	38	98	–	–	–	–	0.53
10000 nM	–	–	56.9	61	32.7	14.4	–

drug-induced phospholipidosis [%], [7]
Settings	0.3 µM	0.833333 µM	3.33333 µM	6.66667 µM	10 µM	30 µM
24 h	-4.01	-8.02	17.6	23.6	28.1	26.9
48 h	-3.93	-5.23	26.4	–	–	–
72 h	-2.08	-7.5	–	–	–	–

Settings	drug sensitivity score	relative viability EC50 [nM]
[9]	–	1870
[10]	–	1870
[11]	5.6	–
[12]	1.4	–
[13]	5.6	–
[14]	7.2	–

C=C1C(=O)[C@]23[C@H](O)[C@H]1CC[C@H]2[C@@]12CO[C@]3(O)[C@@H](O)[C@@H]1C(C)(C)CC[C@@H]2O [Oridonin (Isodonol)]
Settings	SARS-CoV-2 infection rate, [6] [%]	cell count, [1] [%]	cell viability, [2] [%]	cell viability, [4] [%]	cell viability, [5] [%]	cell viability, [15] [%]	morphology score, [8]
1 nM	–	–	97.7	97.4	99.9	102	–
10 nM	–	–	107	103	98.7	95.1	–
0.1 µM	100	94	–	–	–	–	-0.14
100 nM	–	–	103	91.8	97.9	98.3	–
0.3 µM	99	101	–	–	–	–	-0.02
1 µM	104	99	–	–	–	–	-0.18
1000 nM	–	–	93.3	96.2	95.4	94.4	–
3 µM	101	98	–	–	–	–	-0.01
10000 nM	–	–	65.4	42.8	79.7	11.8	–

drug-induced phospholipidosis [%], [7]
Settings	0.3 µM	0.833333 µM	3.33333 µM	6.66667 µM	10 µM	30 µM
24 h	5.1	-1.43	0.65	11	16.8	43.1
48 h	5.34	-3.46	-0.285	6.67	13	–
72 h	4.41	-5.79	-4.81	-1.61	4.49	–

Settings	drug sensitivity score	relative viability EC50 [nM]
[9]	–	2630
[10]	–	> 10000
[11]	2.7	–
[13]	3.7	–
[14]	1.2	–
[16]	–	2660
[17]	5.7	–

CC[C@H]1CN2CCc3cc(OC)c(OC)cc3[C@@H]2C[C@@H]1C[C@H]1NCCc2cc(OC)c(OC)cc21 [emetine]
Settings	SARS-CoV-2 infection rate, [6] [%]	cell count, [1] [%]	cell viability, [3] [%]	cell viability, [4] [%]	cell viability, [5] [%]	cell viability, [15] [%]	morphology score, [8]
1 nM	–	–	105	91.7	94.3	101	–
10 nM	–	–	109	97.8	103	99.7	–
0.1 µM	5	102	–	–	–	–	0.87
100 nM	–	–	99.7	26.1	54.9	43.5	–
0.3 µM	5	91	–	–	–	–	0.7
1 µM	19	69	–	–	–	–	0.44
1000 nM	–	–	35.3	14.5	14	7	–
3 µM	23	59	–	–	–	–	0.43
10000 nM	–	–	30.8	4.5	6.9	2	–

[7], 24 h
Settings	drug-induced phospholipidosis [%]
0.3 µM	3.73
0.833333 µM	5.74

Settings	drug sensitivity score	relative viability EC50 [nM]
[9]	–	54.3
[10]	–	107
[12]	12	–
[13]	26.2	–
[14]	21.9	–
[16]	–	84.6
[17]	24.3	–
[18]	–	375

O=C(NC(Cc1cc(=O)[nH]c2ccccc12)C(=O)O)c1ccc(Cl)cc1 (stereo unspecified) [rebamipide]
cell viability [%]
Settings	[2]	[3]	[4]	[5]	[15]
1 nM	92.6	99.2	107	101	90.5
10 nM	97.7	97.5	89.4	96	96.7
100 nM	89.9	92.7	108	97.6	93.9
1000 nM	100	99.7	105	96.8	103
10000 nM	99.3	106	104	110	110

Settings	drug sensitivity score	relative viability EC50 [nM]
[9]	–	> 10000
[10]	–	> 10000
[11]	0	–
[12]	0	–
[13]	0	–
[14]	0	–
[16]	–	> 10000
[17]	0	–
[18]	–	> 10000
[19]	–	> 10000

Oc1ccc(/C=C/c2cc(O)cc(O)c2)cc1 [resveratrol]
cell viability [%]
Settings	[2]	[3]	[4]	[5]	[15]
1 nM	93.3	106	107	97.5	97.7
10 nM	91.6	103	116	97.3	95
100 nM	95.8	94.8	108	94.9	96.9
1000 nM	99.3	93.7	97.9	100	106
10000 nM	90.1	87.2	104	98.6	106

Settings	drug sensitivity score	relative viability EC50 [nM]
[9]	–	> 10000
[10]	–	> 10000
[11]	0	–
[12]	0.1	–
[13]	0	–
[14]	0	–
[16]	–	> 10000
[17]	0	–
[18]	–	> 10000
[19]	–	> 10000
